{"source": "patent US20260256792A1", "about": "“TREATMENT OF CHRONIC SPONTANEOUS URTICARIA BY ADMINISTERING (R)-2-[3-[4-AMINO-3-(2-FLUORO-4-PHENOXY-PHENYL)PYRAZOLO[3,4-D]PYRIMIDIN-1-YL]PIPERIDINE-1-CARBONYL]-4-METHYL-4-[4-(OXETAN-3-YL)PIPERAZIN-1-YL]PENT-2-ENENITRILE” (priority 2023, published 2026)", "test_system": "moderate-to-severe chronic spontaneous urticaria (CSU)", "assay": "Phase 2 CSU study: urticaria activity score over 7 days (UAS7)", "assay_type": "in vivo, human", "set-up": "key to UAS7 Median / UAS7 Change from baseline Median / UAS7 change from baseline, Q1 / UAS7 change from baseline, Q3 / UAS7 change from baseline, Max / UAS7 Change from baseline LS Mean (SE): UAS7 points; daily UAS score ranges 0–6 points/day, over 7 days", "description": "The study comprises a 12 week, randomized, double-blind, placebo-controlled, multi-center, dose-ranging efficacy and safety phase, followed by a 40 week open label extension (OLE) phase (see FIG. 1). The study consists of three phases and an optional OLE phase. […] Clinically, CSU is characterized by the spontaneous and recurrent appearance of pruritic hives. The proposed primary endpoints were the UAS7 at Week 12 in EU and EU reference countries and the ISS7 in the US. Regardless of where a participant was from, all assessments were the same. The UAS7 score is a composite score containing both the HSS7 and the ISS7. This allowed a global assessment of the two key components of urticaria: hives and itch. […] The UAS is a validated PRO measure. […] The daily UAS scores range from 0 to 6 point/day. […] Patients were to complete the UAS using the e-diary. […] The following secondary endpoints were to be analyzed using the same approach as for the primary endpoint: • Change from baseline in UAS7 at Week 4 • Change from baseline in UAS7 at Week 12 (for US and US reference countries) • Change from baseline in ISS7 at Week 12 (except US and US reference countries) • Change from baseline in HSS7 at Week 12 The following responder secondary endpoints were to be analyzed using the Cochran-Mantel-Haenszel test adjusted by region: • Proportion of participants with UAS7<6 at Week 12 • Proportion of participants with UAS7=0 at Week 12 Participants who received selected prohibited medications and/or rescue medications were to be considered as non-responders for time points after the medication usage. For other participants, all available data including those collected during the off-treatment period were to be used to determine the responder/non-responder status. Missing data were to be considered as non-responders.", "key": {"[1]": {"details": "Week 1, 400 mg QPM, Prior Omalizumab Use"}, "[2]": {"details": "Week 1, 400 mg QPM, omalizumab-naive participants"}, "[3]": {"details": "Week 1, 400 mg TID, ITT population"}, "[4]": {"details": "Week 1, 400 mg TID, Omalizumab-Naïve"}, "[5]": {"details": "Week 1, 400 mg TID, Prior Omalizumab Use"}, "[6]": {"details": "Week 1, 400 mg TID, omalizumab-naive participants"}, "[7]": {"details": "Week 2, 400 mg BID, ITT population"}, "[8]": {"details": "Week 2, 400 mg BID, Omalizumab-Naïve"}, "[9]": {"details": "Week 2, 400 mg BID, Prior Omalizumab Use"}, "[10]": {"details": "Week 2, 400 mg BID, omalizumab-naive participants"}, "[11]": {"details": "Week 2, 400 mg QPM, ITT population"}, "[12]": {"details": "Week 2, 400 mg QPM, Omalizumab-Naïve"}, "[13]": {"details": "Week 2, 400 mg QPM, Prior Omalizumab Use"}, "[14]": {"details": "Week 2, 400 mg QPM, omalizumab-naive participants"}}, "data": [{"smiles": "CC(C)(C=C(C#N)C(=O)N1CCC[C@@H](n2nc(-c3ccc(Oc4ccccc4)cc3F)c3c(N)ncnc32)C1)N1CCN(C2COC2)CC1", "note": "[rilzabrutinib, (R)-2-[3-[4-amino-3-(2-fluoro-4-phenoxy-phenyl)pyrazolo[3,4-d]pyrimidin-1-yl]piperidine-1-carbonyl]-4-methyl-4-[4-(oxetan-3-yl)piperazin-1-yl]pent-2-enenitrile]", "values": [{"measurement": "UAS7 Percent change from baseline Mean (SD)", "setting": "[1]", "value": "−39.02 (NC) %"}, {"measurement": "UAS7 Percent change from baseline Median", "setting": "[1]", "value": "−39.02", "unit": "%"}, {"measurement": "Non-responder, UAS7 reduction from baseline of 10 points or more", "setting": "[2]", "value": "26 (70.3) n (%)"}, {"measurement": "OR for rilzabrutinib vs. placebo, UAS7 reduction of 10 points or more", "setting": "[2]", "value": 1.510}, {"measurement": "RRD (%) for rilzabrutinib vs. placebo, UAS7 reduction of 10 points or more", "setting": "[2]", "value": 8.2, "unit": "%"}, {"measurement": "Responder, UAS7 reduction from baseline of 10 points or more", "setting": "[2]", "value": "11 (29.7) n (%)"}, {"measurement": "Non-responder, UAS7 reduction from baseline of 10 points or more", "setting": "[3]", "value": "18 (43.9) n (%)"}, {"measurement": "OR for rilzabrutinib vs. placebo, UAS7 reduction of 10 points or more", "setting": "[3]", "value": 4.196}, {"measurement": "RRD (%) for rilzabrutinib vs. placebo, UAS7 reduction of 10 points or more", "setting": "[3]", "value": 32.5, "unit": "%"}, {"measurement": "Responder, UAS7 reduction from baseline of 10 points or more", "setting": "[3]", "value": "23 (56.1) n (%)"}, {"measurement": "UAS7 Change from baseline Mean (SD)", "setting": "[4]", "value": "−11.57 (10.61)"}, {"measurement": "UAS7 Change from baseline Median", "setting": "[4]", "value": "−10.00"}, {"measurement": "UAS7 Mean (SD)", "setting": "[4]", "value": "17.77 (10.26)"}, {"measurement": "UAS7 Median", "setting": "[4]", "value": 18.00}, {"measurement": "UAS7 Percent change from baseline Mean (SD)", "setting": "[4]", "value": "−38.05 (33.56) %"}, {"measurement": "UAS7 Percent change from baseline Median", "setting": "[4]", "value": "−30.95", "unit": "%"}, {"measurement": "UAS7 Change from baseline Mean (SD)", "setting": "[5]", "value": "−20.86 (9.80)"}, {"measurement": "UAS7 Change from baseline Median", "setting": "[5]", "value": "−21.00"}, {"measurement": "UAS7 Mean (SD)", "setting": "[5]", "value": "12.17 (8.54)"}, {"measurement": "UAS7 Percent change from baseline Mean (SD)", "setting": "[5]", "value": "−63.75 (22.12) %"}, {"measurement": "UAS7 Percent change from baseline Median", "setting": "[5]", "value": "−69.05", "unit": "%"}, {"measurement": "Non-responder, UAS7 reduction from baseline of 10 points or more", "setting": "[6]", "value": "17 (48.6) n (%)"}, {"measurement": "OR for rilzabrutinib vs. placebo, UAS7 reduction of 10 points or more", "setting": "[6]", "value": 3.580}, {"measurement": "RRD (%) for rilzabrutinib vs. placebo, UAS7 reduction of 10 points or more", "setting": "[6]", "value": 28.5, "unit": "%"}, {"measurement": "Responder, UAS7 reduction from baseline of 10 points or more", "setting": "[6]", "value": "18 (51.4) n (%)"}, {"measurement": "Non-responder, UAS7 reduction from baseline of 10 points or more", "setting": "[7]", "value": "19 (46.3) n (%)"}, {"measurement": "OR for rilzabrutinib vs. placebo, UAS7 reduction of 10 points or more", "setting": "[7]", "value": 3.388}, {"measurement": "RRD (%) for rilzabrutinib vs. placebo, UAS7 reduction of 10 points or more", "setting": "[7]", "value": 27.8, "unit": "%"}, {"measurement": "Responder, UAS7 reduction from baseline of 10 points or more", "setting": "[7]", "value": "22 (53.7) n (%)"}, {"measurement": "UAS7 Change from baseline Mean (SD)", "setting": "[8]", "value": "−10.10 (8.61)"}, {"measurement": "UAS7 Change from baseline Median", "setting": "[8]", "value": "−10.00"}, {"measurement": "UAS7 Mean (SD)", "setting": "[8]", "value": "19.59 (10.86)"}, {"measurement": "UAS7 Median", "setting": "[8]", "value": 18.10}, {"measurement": "UAS7 Percent change from baseline Mean (SD)", "setting": "[8]", "value": "−35.50 (31.03) %"}, {"measurement": "UAS7 Percent change from baseline Median", "setting": "[8]", "value": "−35.71", "unit": "%"}, {"measurement": "UAS7 Change from baseline Mean (SD)", "setting": "[9]", "value": "−14.00 (14.98)"}, {"measurement": "UAS7 Change from baseline Median", "setting": "[9]", "value": "−10.00"}, {"measurement": "UAS7 Mean (SD)", "setting": "[9]", "value": "19.00 (13.67)"}, {"measurement": "UAS7 Median", "setting": "[9]", "value": 23.00}, {"measurement": "UAS7 Percent change from baseline Mean (SD)", "setting": "[9]", "value": "−40.50 (43.43) %"}, {"measurement": "UAS7 Percent change from baseline Median", "setting": "[9]", "value": "−27.44", "unit": "%"}, {"measurement": "Non-responder, UAS7 reduction from baseline of 10 points or more", "setting": "[10]", "value": "17 (48.6) n (%)"}, {"measurement": "OR for rilzabrutinib vs. placebo, UAS7 reduction of 10 points or more", "setting": "[10]", "value": 3.686}, {"measurement": "RRD (%) for rilzabrutinib vs. placebo, UAS7 reduction of 10 points or more", "setting": "[10]", "value": 28.9, "unit": "%"}, {"measurement": "Responder, UAS7 reduction from baseline of 10 points or more", "setting": "[10]", "value": "18 (51.4) n (%)"}, {"measurement": "Non-responder, UAS7 reduction from baseline of 10 points or more", "setting": "[11]", "value": "23 (60.5) n (%)"}, {"measurement": "OR for rilzabrutinib vs. placebo, UAS7 reduction of 10 points or more", "setting": "[11]", "value": 2.169}, {"measurement": "RRD (%) for rilzabrutinib vs. placebo, UAS7 reduction of 10 points or more", "setting": "[11]", "value": 16.6, "unit": "%"}, {"measurement": "Responder, UAS7 reduction from baseline of 10 points or more", "setting": "[11]", "value": "15 (39.5) n (%)"}, {"measurement": "UAS7 Change from baseline Mean (SD)", "setting": "[12]", "value": "−7.67 (8.84)"}, {"measurement": "UAS7 Change from baseline Median", "setting": "[12]", "value": "−5.00"}, {"measurement": "UAS7 Mean (SD)", "setting": "[12]", "value": "23.44 (8.97)"}, {"measurement": "UAS7 Median", "setting": "[12]", "value": 23.00}, {"measurement": "UAS7 Percent change from baseline Mean (SD)", "setting": "[12]", "value": "−23.23 (26.34) %"}, {"measurement": "UAS7 Percent change from baseline Median", "setting": "[12]", "value": "−16.67", "unit": "%"}, {"measurement": "UAS7 Change from baseline Mean (SD)", "setting": "[13]", "value": "−19.00 (NC)"}, {"measurement": "UAS7 Change from baseline Median", "setting": "[13]", "value": "−19.00"}, {"measurement": "UAS7 Mean (SD)", "setting": "[13]", "value": "22.00 (NC)"}, {"measurement": "UAS7 Median", "setting": "[13]", "value": 22.00}, {"measurement": "UAS7 Percent change from baseline Mean (SD)", "setting": "[13]", "value": "−46.34 (NC) %"}, {"measurement": "UAS7 Percent change from baseline Median", "setting": "[13]", "value": "−46.34", "unit": "%"}, {"measurement": "Non-responder, UAS7 reduction from baseline of 10 points or more", "setting": "[14]", "value": "23 (62.2) n (%)"}, {"measurement": "OR for rilzabrutinib vs. placebo, UAS7 reduction of 10 points or more", "setting": "[14]", "value": 2.174}, {"measurement": "RRD (%) for rilzabrutinib vs. placebo, UAS7 reduction of 10 points or more", "setting": "[14]", "value": 16.6, "unit": "%"}, {"measurement": "Responder, UAS7 reduction from baseline of 10 points or more", "setting": "[14]", "value": "14 (37.8) n (%)"}, {"measurement": "Non-responder, UAS7 reduction from baseline of 10 points or more", "setting": "Week 2, 400 mg TID, ITT population", "value": "13 (31.7) n (%)"}]}]}
